Assay results taken from patent US20090143450A1, “METHOD FOR TREATING CENTRAL PAIN SYNDROM OR FOR INDUCING CENTRALLY GENERATED PAIN IN AN ANIMAL MODEL” (UNIVERSITY OF MARYLAND, BALTIMORE, priority 2005, published 2009).

Key:
[1] = test system: CA1 cells; experiment: Plateau potentials evoked by glutamate photolysis on CA1 cell dendrites in hippocampal slice cultures; format: cell-based; details: compared with control CA1 cells
From the text: It may be expected based on previous studies in the laboratory of the present inventor that partial denervation and removal of the majority of the excitatory input to area CA1 would result in a quiescent population of cells. In fact, local stimulation within area CA1 triggers prolonged, abnormally oscillatory synaptic responses in lesioned cultures that are never seen in normally innervated tissue (FIG. 1, top row), but only with a delay of 7 or more days after the injury (Wei et al., 2003). The reason is […] that denervation increases glutamate receptor expression in CA1 cells, akin to the well known phenomenon of denervation suprasensitivity in muscle. To confirm, the laboratory of the present inventor used photolysis of caged glutamate to compare the responses of CA1 cell dendrites in lesioned and unlesioned cultures.
In control cultures, distal, terminal dendritic branches of CA1 cells respond to weak photolysis of glutamate with passive subthreshold depolarizations. Stronger glutamate applications, however, trigger all-or-none Ca^2+-sensitive responses that are called plateau potentials (Wei et al., 2001). […] Plateau potentials, in contrast, are accompanied by Ca^2+ signals that can be seen throughout the stimulated dendrite within milliseconds, indicative of their rapid electrical propagation along the entire stimulated branch.

[2] = test system: animals with lesioned spinothalamic tracts; experiment: von Frey filament test for allodynia after spinothalamic tract transection; format: in vivo, rat; details: 500 mg/kg intraperitoneally; FIG. 4B
Experimental: (§1) Spinothalamic tract transection. The spinothalamic tract is transected bilaterally at the level of the thoracic/lumbar border, thereby severing the ascending pathways conveying somatosensory, thermal and nociceptive information to the cortex via the thalamus. Male, adult Sprague-Dawley rats (ca. 200 gm) are anesthetized with pentobarbital and a T8 laminectomy is performed. The dura is opened with the tip of a 21 g. syringe needle to expose the spinal cord. The spinal cord is then lifted and rotated using a fine, sterile glass rod, and the ventral lateral pain pathways are severed electrolytically using a 1 MΩ sharpened tungsten needle and a 45 V pulse for 1 min. The lesion is packed with a small piece of sterile gelfoam. The overlying muscles and skin are closed and sutured, and the animal is allowed to recover on a 37° C. heating pad. Sham-operated controls undergo a laminectomy without dural penetration or spinal injury. This spinal transection procedure is a useful model of central pain syndrome where increased pain sensitivity and allodynia were observed. At various times after the lesion, standard behavioral tests were completed to assay the threshold for a stimulus to be perceived as painful, and allodynia was performed on awake, behaving animals. […] The paw withdrawal latency is automatically recorded when the rat withdraws its paw from the stimulus. […]

[3] = test system: animals with lesioned spinothalamic tracts; experiment: Paw withdrawal latency test for hyperalgesia after spinothalamic tract transection; format: in vivo, rat; details: 500 mg/kg intraperitoneally; FIG. 4A
Experimental: as §1

SMILES	prolongation of plateau potentials in denervated CA1 cells [1]	allodynia (von Frey's test) [2]	hyperalgesia (paw withdrawal latency) [3]
O=C(O)CN(CC(=O)O)c1ccccc1OCCOc1ccccc1N(CC(=O)O)CC(=O)O [BAPTA]	occluded	–	–
CCC1(C)CC(=O)NC1=O (stereo not shown) [ethosuximide, 2-methyl-2-ethyl succinimide]	–	reduced transiently	reduced transiently
CC[N+](CC)(CC)CC [TEA]	occluded	–	–
